Laboratory results published in the supplement of paper PMC10307832.

Tests used:
Assay in all cases: relative viability (nuclei count vs DMSO), 5 days (fraction); higher = more cells survive
[1] = compound: Nc1ccccc1NC(=O)c1ccc(CNC(=O)OCc2cccnc2)cc1 [Entinostat] + NC(=O)Nc1cc(-c2cccc(F)c2)sc1C(=O)N[C@H]1CCCNC1 [AZD7762] (partner 0.2 µM)
In short: (§1)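 Relative viability equals treated-well nuclei counts divided by vehicle-well nuclei counts. Counts came from 4× images of lung cancer cell lines grown in 1536-well plates for 5 days after pin-tool dosing on the day after seeding. Dosing used one drug alone or a fixed anchor-drug dose plus five library-drug doses (not always all listed) in √10 steps, and values are medians of duplicate plates.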

[2] = compound: CN1CCC(CNc2ccc3ncc(-c4cccc(OC(F)(F)F)c4)n3n2)CC1 [SGI-1776] + CCNC(=O)c1noc(-c2cc(C(C)C)c(O)cc2O)c1-c1ccc(CN2CCOCC2)cc1 [Luminespib] (partner 0.01 µM)
In short: as §1

[3] = compound: C1COCCN1C2=NC(=NC3=C2OC4=C3C=CC=N4)C5=CC(=CC=C5)NC(=O)C6=CN=C(C=C6)N + Cc1cc(Nc2cc(N3CCN(C)CC3)nc(Sc3ccc(NC(=O)C4CC4)cc3)n2)n[nH]1 [Tozasertib] (partner 0.1 µM)
In short: as §1

[4] = compound: CN1CCC(CNc2ccc3ncc(-c4cccc(OC(F)(F)F)c4)n3n2)CC1 [SGI-1776] + Cc1cc(Nc2cc(N3CCN(C)CC3)nc(Sc3ccc(NC(=O)C4CC4)cc3)n2)n[nH]1 [Tozasertib] (partner 0.1 µM)
In short: as §1

Cell Line | relative viability ([1]; first compound 0.02 µM) | relative viability ([1]; first compound 0.06325 µM) | relative viability ([1]; first compound 0.2 µM) | relative viability ([1]; first compound 0.6325 µM) | relative viability ([1]; first compound 2 µM) | relative viability ([2]; first compound 0.08 µM) | relative viability ([2]; first compound 0.8 µM) | relative viability ([2]; first compound 2.53 µM) | relative viability ([2]; first compound 8 µM) | relative viability ([3]; first compound 0.02 µM) | relative viability ([3]; first compound 0.06325 µM) | relative viability ([3]; first compound 0.2 µM) | relative viability ([3]; first compound 0.6325 µM) | relative viability ([3]; first compound 2 µM) | relative viability ([4]; first compound 0.08 µM) | relative viability ([4]; first compound 0.8 µM) | relative viability ([4]; first compound 2.53 µM) | relative viability ([4]; first compound 8 µM)
PC-3 [JPC-3] | 1.06 | 0.804 | 0.738 | 0.522 | 0.231 | 0.739 | 0.573 | 0.741 | 0.628 | 0.914 | 0.932 | 0.85 | 0.893 | 0.507 | 0.911 | 0.9 | 0.863 | 0.544
NCI-H1734 | 0.5 | 0.476 | 0.364 | 0.259 | 0.244 | 0.193 | 0.201 | 0.19 | 0.163 | 0.272 | 0.254 | 0.257 | 0.229 | 0.186 | 0.245 | 0.226 | 0.246 | 0.219
NCI-H1651 | 0.452 | 0.48 | 0.377 | 0.394 | 0.245 | 0.823 | 0.977 | 0.784 | 0.642 | 0.685 | 0.76 | 0.416 | 0.522 | 0.338 | 0.619 | 0.642 | 0.31 | 0.344
NCI-H838 | 0.993 | 0.973 | 0.814 | 0.917 | 0.712 | 0.231 | 0.331 | 0.349 | 0.254 | 0.278 | 0.278 | 0.256 | 0.257 | 0.182 | 0.262 | 0.265 | 0.195 | 0.213
NCI-H2342 | 0.514 | 0.569 | 0.507 | 0.428 | 0.398 | 0.695 | 0.767 | 0.721 | 0.64 | 0.505 | 0.483 | 0.458 | 0.405 | 0.451 | 0.668 | 0.456 | 0.504 | 0.357
NCI-H1915 | 0.713 | 0.694 | 0.716 | 0.526 | 0.286 | 0.778 | 0.843 | 0.75 | 0.684 | 0.439 | 0.492 | 0.392 | 0.408 | 0.264 | 0.456 | 0.418 | 0.33 | 0.198
ChaGo-K-1 | 0.872 | 0.861 | 0.962 | 0.897 | 0.692 | 0.586 | 0.51 | 0.706 | 0.556 | 0.217 | 0.23 | 0.197 | 0.228 | 0.224 | 0.242 | 0.22 | 0.223 | 0.177
HOP-62 | 0.535 | 0.711 | 0.545 | 0.222 | 0.15 | 0.835 | 0.93 | 0.941 | 0.89 | 0.358 | 0.396 | 0.337 | 0.312 | 0.225 | 0.397 | 0.323 | 0.241 | 0.251
NCI-H1975 | 0.628 | 0.612 | 0.669 | 0.476 | 0.395 | 0.302 | 0.137 | 0.208 | 0.106 | 0.893 | 0.699 | 0.315 | 0.225 | 0.215 | 0.809 | 0.335 | 0.169 | 0.175
BEN | 0.771 | 0.714 | 0.685 | 0.602 | 0.464 | 0.434 | 0.39 | 1.1 | 0.475 | 0.593 | 0.444 | 0.488 | 0.513 | 0.386 | 0.523 | 0.599 | 0.62 | 0.453
EMC-BAC-2 | 1.17 | 0.987 | 0.881 | 0.441 | 0.457 | 1.2 | 1.27 | 1.26 | 1.11 | 0.302 | 0.289 | 0.26 | 0.299 | 0.303 | 0.285 | 0.257 | 0.212 | 0.224
NCI-H650 | 1.12 | 0.95 | 1.08 | 0.823 | 0.325 | 0.863 | 0.734 | 0.9 | 0.858 | 0.769 | 0.766 | 0.737 | 0.799 | 0.513 | 0.823 | 0.688 | 0.373 | 0.185
LU99A | 0.353 | 0.475 | 0.378 | 0.224 | 0.254 | 0.245 | 0.247 | 0.253 | 0.254 | 0.277 | 0.276 | 0.231 | 0.21 | 0.173 | 0.252 | 0.239 | 0.229 | 0.25
NCI-H2347 | 0.741 | 0.755 | 0.576 | 0.378 | 0.255 | 0.344 | 0.558 | 0.324 | 0.539 | 0.513 | 0.711 | 0.42 | 0.544 | 0.387 | 0.491 | 0.579 | 0.418 | 0.279
HCC-827 | 0.247 | 0.244 | 0.159 | 0.203 | 0.159 | 0.551 | 0.622 | 0.782 | 0.348 | 0.415 | 0.435 | 0.441 | 0.438 | 0.343 | 0.448 | 0.369 | 0.422 | 0.359
CAL-12T | 0.775 | 0.578 | 0.67 | 0.642 | 0.464 | 0.331 | 0.394 | 0.452 | 0.519 | 0.325 | 0.27 | 0.206 | 0.24 | 0.177 | 0.3 | 0.216 | 0.234 | 0.205
PC-14 | 0.577 | 0.364 | 0.397 | 0.165 | 0.0725 | 0.154 | 0.138 | 0.126 | 0.129 | 0.593 | 0.651 | 0.566 | 0.486 | 0.307 | 0.618 | 0.522 | 0.452 | 0.0803
